Patent US20220296573A1, “NOVEL COMPOUNDS AND PHARMACEUTICAL COMPOSITIONS THEREOF FOR THE TREATMENT OF INFLAMMATORY DISORDERS” (Galapagos NV, priority 2019, published 2022)

Legend:
[1] = target: T1, human IRAK-4 (Homo sapiens, UniProt Q9NWZ3); test: Phosphorylation IC50 determination for human IRAK-4 (ADP-Glo Kinase Assay); conditions: human IRAK-4, substrate RIP140, Km ATP; read-out: IRAK4 ADPglo biochemical assay IC50
T1 construct: purchased Carna Biosciences 09 145
T1 sequence (Q9NWZ3 1-460): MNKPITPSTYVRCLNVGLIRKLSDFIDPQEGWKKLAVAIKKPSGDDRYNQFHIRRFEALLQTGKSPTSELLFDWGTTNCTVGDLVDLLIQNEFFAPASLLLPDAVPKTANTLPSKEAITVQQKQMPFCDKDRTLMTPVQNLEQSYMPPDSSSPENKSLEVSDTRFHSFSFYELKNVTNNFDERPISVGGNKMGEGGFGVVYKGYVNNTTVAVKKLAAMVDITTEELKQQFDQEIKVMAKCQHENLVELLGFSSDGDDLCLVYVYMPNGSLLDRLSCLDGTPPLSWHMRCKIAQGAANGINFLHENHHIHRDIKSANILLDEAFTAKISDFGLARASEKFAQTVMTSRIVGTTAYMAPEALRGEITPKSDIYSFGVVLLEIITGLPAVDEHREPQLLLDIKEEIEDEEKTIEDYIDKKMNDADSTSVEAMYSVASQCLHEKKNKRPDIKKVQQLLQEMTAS
Experimental: The phosphorylation of the substrate RIP140 (SEQ ID1) by IRAK4 at Km ATP was detected with the ADP-Glo Kinase Assay (Promega, Cat #V9103), a luminescent kinase assay which measures the ADP formed from a kinase reaction. (Zegzouti et al. 2009) In a second step the kinase reaction was terminated and all the remaining ATP was depleted. In a final step the ADP was converted into ATP and this newly synthesized ATP was measured by using a luciferase/luciferin reaction with a luminescent reader. The luminescent signal positively correlated with kinase activity, in particular kinase inhibition giving a decrease of the luminescent signal.
For the semi-automated assay, the positive control (100% inhibition) was prepared by diluting 10 mM staurosporine stock mixture (20 μL) in water (3.8 mL) and DMSO (180 μL), thus resulting in a […] staurosporine solution at 1% DMSO (final concentration after further dilution in the kinase reaction).
For the automated assay, no pre-dilution of the 10 mM staurosporine stock was made. 10 mM staurosporine was spotted directly in the assay plate using acoustic dispensing and complemented with DMSO to result in a similar final concentration as mentioned above.
For the semi-automated assay, the negative control (0% inhibition) was prepared by mixing water (3.8 mL) and DMSO (200 μL) resulting in a final concentration of 1% DMSO after further dilution in the kinase reaction. For the automated assay no pre-dilution of DMSO was done. 100% DMSO was spotted directly on the assay plate.
The assay buffer solution was prepared at a concentration corresponding to 5 fold the final (most diluted) assay concentration by mixing a solution of 125 mM TRIS pH 7.5+0.05% Triton X-100+2.5 mM EGTA (5.27 mL) with 1M mgCl2 (72 μL), 1M DTT (57.6 μL), and 200 mM MnCl2 (360 μL).
For example, for the semi-automated method, the enzyme-substrate mixture was prepared by mixing water (3999 μL), assay buffer solution (1380 μL), 1 mM RIP140 (138 μL—SEQ ID1), and 200 ng/mL IRAK 4 (3.45 μL Carna Biosciences, 09 145).
For semi-automated method, the ATP mixture was prepared at a concentration corresponding to 2.5 fold the final (most diluted) assay concentration of the semi-automated method and 1.5 fold the final (most diluted) assay concentration of the automated method. For example, for the semi-automated method, the ATP mixture was prepared by mixing water (4126 μL), assay buffer solution (1380 μL), and 10 mM ATP (13.80 μL).
The assay are performed either in a semi-automated or fully automated manner. The assay volume and the incubation time of the ADP detection were different accordingly the method used.
The compounds were prepared as a serial dilution of 10 point dose responses with 1/5 dilution steps in 100% DMSO starting from 2 mM highest concentration, diluted 1/20 in water. 1 μL was transferred dry to the assay plates.
On each assay plate 32 wells of each control (positive & negative) were added, followed by 2 μL enzyme-substrate mixture.
The reaction was started by adding 2 μL diluted ATP (final concentration Km ATP) on the assay plates. Plates were centrifuged for a few seconds at 1000 rpm followed by an incubation at r.t. for 120 min.
The reactions were stopped and the unconsumed ATP was depleted by adding 5 μL ADP-glo Reagent (Promega, Cat #V9103) to the reaction. The plates were quickly centrifuged at 1000 rpm and incubated at r.t. for 40 min corresponding to full ATP depletion.
The ADP was converted back to ATP and luciferase and luciferin were introduced to detect ATP by adding 10 μL kinase detection reagent (Promega, Cat #V9103) to the reaction. The plates were centrifuged for a few seconds at 1000 rpm and incubated at r.t. for a further 30 min.
Luminescent read out was performed on an Envision luminescent reader (Perkin Elmer).
For the automated assay, the compounds were prepared as a serial dilution of 10 point dose responses with 1/5 dilution steps in 100% DMSO starting from 2 mM highest concentration. […]

[2] = system: Human Hepatocyte; test: Metabolic stability in human hepatocytes; format: in vitro ADME; conditions: human cryopreserved hepatocytes, 1 μM
Experimental: (§1) The aim of this assay is to determine the metabolic stability of the compound in hepatocytes (cryopreserved) of different species. Low hepatocyte stability may result in the formation of unwanted metabolites, high clearance, and therefore is not desirable.
(§2) A 10 mM stock solution of test compound in DMSO was first diluted in DMSO to 3 mM, and then in modified Krebs-Henseleit buffer (Sigma, K3753) to 5 μM. This compound dilution was added to a suspension of pooled cryopreserved hepatocytes (BioreclamationIVT) at 37° C. under gentle shaking.
(§3) Final reaction conditions were: 1 μM of test compound, 0.03% DMSO, 0.5 million viable hepatocytes/mL, and 75 μL incubation volume.
(§4) Testosterone (1 μM) and 7-hydroxycoumarin (1 μM) were used, respectively as phase I and phase II metabolic reaction controls.
(§5) After 0, 10, 20, 45, 90, 120 and 180 min of incubation, the reaction was terminated with 225 μL of MeCN:MeOH (2:1) containing 100 ng/mL of diclofenac as analytical internal standard. Samples were mixed, centrifuged and the supernatant analyzed by LC-MS/MS.
(§6) The instrument responses (ratios of test compound and internal standard peak areas) were referenced to the zero time point samples (considered as 100%) in order to determine the percentage of compound remaining.
(§7) Plots of percentage compound remaining were used to determine the intrinsic clearance in the hepatocyte incubations using the following equations:
(§8) Scaled Clint [L/h/kg]=Clint [μL/min/10^6 cells]*#(10) cells/g liver*60*(1/10^6) Scaled Clint unbound [L/h/kg]=Clint [L/h/kg]/Fu,inc where: fu,inc equals hepatocyte binding, derived from microsomal binding (fu,mic) by following equation: […]

[3] = system: Mouse Hepatocyte; test: Metabolic stability in mouse hepatocytes; format: in vitro ADME; conditions: mouse cryopreserved hepatocytes, 1 μM
Experimental: as §1, §2, §3, §4, §5, §6, §7, §8

IC50 [1] [nM]	Human Hepatocyte stability (Perc. remaining at 90 min) [2] [Perc.]	Mouse Hepatocyte stability (Perc. remaining at 90 min) [3] [Perc.]	SMILES
0.1 to 5	93.85	72.8	CC(F)(F)c1cccc(C(=O)Nc2cn3cc(C4COCCO4)nc3cc2C(N)=O)n1 (stereo not drawn) [Compound 13, 6-(6-(1,1-difluoroethyl)picolinamido)-2-(1,4-dioxan-2-yl)imidazo[1,2-a]pyridine-7-carboxamide]
0.1 to 5	100.05	67.65	CNC(=O)c1cc2nc(C3COCCO3)cn2cc1NC(=O)c1cccc(C(C)(F)F)n1 (stereo not drawn) [Compound 14, 6-(6-(1,1-difluoroethyl)picolinamido)-2-(1,4-dioxan-2-yl)-N-methylimidazo[1,2-a]pyridine-7-carboxamide]
